Measurements taken from ChEMBL document CHEMBL3272151, “Quantitative structure-activity relationship of chymotrypsin-ligand interactions” (J Med Chem, 1977).

What was measured:
[1] = Binding affinity to chymotrypsin (unknown origin) assessed as acetylation at pH 7; conditions: Homo sapiens
[2] = Binding affinity to alpha-chymotrypsin (unknown origin) assessed as hydrolysis; conditions: Homo sapiens
[3] = Binding affinity to alpha-chymotrypsin (unknown origin); conditions: Homo sapiens
[4] = Inhibition of chymotrypsin (unknown origin); conditions: Homo sapiens
[5] = Binding affinity to chymotrypsin (unknown origin) assessed as acetylation at pH 6; conditions: Homo sapiens
[6] = Binding affinity to chymotrypsin (unknown origin); conditions: Homo sapiens
[7] = Binding affinity to chymotrypsin (unknown origin) assessed as deacetylation; conditions: Homo sapiens
[8] = Binding affinity to chymotrypsin (unknown origin) assessed as hydrolysis; conditions: Homo sapiens

Description for Homo sapiens: Inhibition of alpha-chymotrypsin (unknown origin)

log K [1]	log(1/Km) [6]	logKcat [8]	Structure (SMILES)	further results
-0.31	–	–	COC(=O)CNC(C)=O	logKcat [2]: -1.89; log(1/Km) [3]: 1.51
–	–	–	COC(=O)CNC(=O)C(C)C	logKcat [2]: -1.68; log(1/Km) [3]: 1.34
5.47	–	–	O=C(Oc1ccc([N+](=O)[O-])cc1[N+](=O)[O-])c1cccc(C(F)(F)F)c1	–
–	–	–	COC(=O)CNC(=O)Cc1ccccc1	logKcat [2]: -2.22; log(1/Km) [3]: 2.1
–	–	–	O=C(O)c1ccc2ccccc2c1	log1/Ki [4]: 3.86
6.4	–	–	O=C(Oc1ccc([N+](=O)[O-])cc1[N+](=O)[O-])c1ccc(C(F)(F)F)cc1	–
–	–	–	COC(=O)CNC(=O)c1ccccn1	logKcat [2]: 0.39; log(1/Km) [3]: 2
–	–	–	CC(C)(C)c1ccc(C(=O)O)cc1	log1/Ki [4]: 3.89
4.96	–	–	COc1ccc(C(=O)Oc2ccc([N+](=O)[O-])cc2[N+](=O)[O-])cc1	–
3.11	–	–	O=C(Oc1ccc([N+](=O)[O-])cc1)c1ccc(F)cc1	log K [5]: 2.74
0.62	3.07	0.39	CCC[C@H](NC(=O)c1ccccc1)C(=O)OC	log K [7]: 0.77
5.99	–	–	CC(C)c1ccc(C(=O)Oc2ccc([N+](=O)[O-])cc2[N+](=O)[O-])cc1	–
3.59	–	–	O=C(Oc1ccc([N+](=O)[O-])cc1)c1cccc(C(F)(F)F)c1	log K [5]: 3.22
–	–	–	Cc1ccc(C(=O)O)cc1	log1/Ki [4]: 2.43
–	3.4	0.27	CC(=O)NCC(=O)Oc1ccc([N+](=O)[O-])cc1	log K [7]: -0.12
–	–	–	COC(=O)CNC(=O)c1ccc(N)cc1	logKcat [2]: -1.39; log(1/Km) [3]: 2.08
4.86	–	–	O=C(Oc1ccc([N+](=O)[O-])cc1[N+](=O)[O-])c1ccccc1	–
–	–	-1.25	COC(=O)CNC(=O)c1c[nH]c2ccccc12	log(1/Km) [3]: 2.86
–	–	–	CCCCC	log1/Ki [4]: 2.25
–	2.42	0.7	COC(=O)[C@H](CC(C)C)NC(C)=O	log K [7]: 1.2
-0.49	1.37	-0.9	COC(=O)[C@@H](NC(=O)CCl)C(C)C	log K [7]: -0.68
–	2.69	-1.32	CC(C)OC(=O)CNC(=O)c1ccccc1	–
3.6	–	–	O=C(Oc1ccc([N+](=O)[O-])cc1)c1cccc(F)c1	log K [5]: 3.17; log K [7]: -0.35
–	4.22	2.04	CC(=O)N[C@@H](Cc1ccccc1)C(=O)O[C@@H](C)c1ccccc1	–

log K [1]	log(1/Km) [6]	logKcat [8]	Structure (SMILES)	further results
–	–	–	C1=CCCCC1	log1/Ki [4]: 2.07
-1.03	1.2	–	CCOC(=O)CNC(C)=O	logKcat [2]: -1.42
-1.16	2.22	-1.16	CCOC(=O)[C@H](C)NC(=O)c1ccccc1	log K [7]: -0.22
–	3.87	-0.21	Cc1ccc(OC(=O)CNC(=O)c2ccccc2)cc1	–
–	4.82	1.54	COc1ccc(OC(=O)[C@H](Cc2ccccc2)NS(C)(=O)=O)cc1	–
–	3.66	-0.6	CC(=O)NCC(=O)O[C@H](C)c1ccccc1	–
-0.38	–	-0.9	COC(=O)CNC(=O)c1ccccc1	log(1/Km) [3]: 2.12
-0.75	0.75	-1.08	CC(=O)N[C@H](C(=O)OC(C)C)C(C)C	log K [7]: -0.68
–	4.06	-0.31	O=C(CNC(=O)c1ccccc1)Oc1ccc([N+](=O)[O-])cc1	–
2.9	2.9	1.72	COC(=O)[C@H](Cc1ccccc1)NC(C)=O	log K [7]: 2.04
–	–	–	Clc1ccccc1	log1/Ki (Homo sapiens): 3.09
–	4.7	–	Cc1ccc(OC(=O)[C@H](Cc2ccccc2)NS(C)(=O)=O)cc1	log K [8]: 1.56
–	–	–	COC(=O)CNC(=O)c1ccco1	logKcat [2]: -0.01; log(1/Km) [3]: 1.71
3.16	–	–	O=C(Oc1ccc([N+](=O)[O-])cc1)c1ccccc1	log K [5]: 2.64; log K [7]: -3.69
–	4.51	-0.28	CC(=O)c1ccc(OC(=O)CNC(=O)c2ccccc2)cc1	–
4.83	–	–	O=C(Oc1ccc([N+](=O)[O-])cc1[N+](=O)[O-])c1ccc(F)cc1	–
4.44	–	–	CC(C)c1ccc(C(=O)Oc2ccc([N+](=O)[O-])cc2)cc1	–
3.31	–	–	Cc1ccc(C(=O)Oc2ccc([N+](=O)[O-])cc2)cc1	log K [5]: 2.85
3.77	–	–	O=C(Oc1ccc([N+](=O)[O-])cc1)c1cccc(Cl)c1	log K [5]: 3.43
–	–	–	c1ccc2cc3ccccc3cc2c1	log1/Ki (Homo sapiens): 5.26
–	2.76	1.98	CC[C@@H](C)OC(=O)[C@H](Cc1ccccc1)NC(C)=O	–
–	3.87	-0.31	O=C(CNC(=O)c1ccccc1)Oc1ccccc1	–
–	3.72	1.18	COC(=O)[C@H](CC1CCCCC1)NC(C)=O	–
